Data published in PubChem BioAssay AID344 (DTP/NCI, 2004).
Several values for one entry are separate records, joined by “and”; a condition that tells them apart may be missing. Identical values can stand only once. Toxic doses and inconclusive results are not listed.

System: mice, LPC-1 plasma cell tumor ip, median survival T/C
Test: NCI In Vivo Anticancer Drug Screen. Data for tumor model Lieberman Plasma Cell No. 1 (LPC-1) (intraperitoneal) in unknown mice
Conditions: endpoint: median survival time, higher = longer survival
Description: The antitumor activity of compounds was measured in mice bearing transplantable tumors. Survival or tumor size were measured and the results are expressed as the measurement made in the treated group (T) divided by the measurement made in the vehicle treated control group (C). The tumor model used in this assay is Lieberman Plasma Cell No. 1 (LPC-1) (intraperitoneal) in unknown mice

[1] = dose: 23.0 mg/kg/injection, schedule: Q01DX028 (sc), vehicle: carboxymethylcellulose (CMC)
[2] = dose: 39.0 mg/kg/injection, schedule: Q01DX028 (sc), vehicle: carboxymethylcellulose (CMC)
[3] = dose: 65.0 mg/kg/injection, schedule: Q01DX028 (sc), vehicle: carboxymethylcellulose (CMC)
[4] = dose: 108.0 mg/kg/injection, schedule: Q01DX028 (sc), vehicle: carboxymethylcellulose (CMC)

Which results are given for `CN(C)c1ccc(/C=C/c2ccnc3ccccc23)cc1`?
T/C (dose: 2.0 mg/kg/injection, schedule: Q01DX028 (sc), vehicle: carboxymethylcellulose (CMC)): 95 % of control; T/C (dose: 4.0 mg/kg/injection, schedule: Q01DX028 (sc), vehicle: carboxymethylcellulose (CMC)): 100 % of control; T/C (dose: 8.0 mg/kg/injection, schedule: Q01DX028 (sc), vehicle: carboxymethylcellulose (CMC)): 95 % of control; T/C (dose: 16.0 mg/kg/injection, schedule: Q01DX028 (sc), vehicle: carboxymethylcellulose (CMC)): 92 % of control; T/C [1]: 105 % of control; T/C (dose: 32.0 mg/kg/injection, schedule: Q01DX028 (sc), vehicle: carboxymethylcellulose (CMC)): 100 % of control; T/C [2]: 97 % of control; T/C [3]: 100 % of control; T/C [4]: 95 % of control; T/C (dose: 180.0 mg/kg/injection, schedule: Q01DX028 (sc), vehicle: carboxymethylcellulose (CMC)): 95 % of control

Which results are given for `CO[C@H](C(=O)[C@@H](O)[C@@H](C)O)[C@@H]1Cc2cc3cc(OC4CC(OC5CC(O)C(O)C(C)O5)C(O)C(C)O4)c(C)c(O)c3c(O)c2C(=O)[C@H]1OC1CC(OC2CC(OC3CC(C)(O)C(O)C(C)O3)C(O)C(C)O2)C(O)C(C)O1` (stereo not given in full)?
T/C (dose: 0.2 mg/kg/injection, schedule: Q01DX028 (sc), vehicle: saline): 100 % of control; T/C (dose: 0.4 mg/kg/injection, schedule: Q01DX028 (sc), vehicle: saline): 97 % of control

What does the source list for `CCOC(=O)c1c[nH]c2ccc(N(CCCl)CCCl)cc12`?
T/C [1]: 112 % of control; T/C [2]: 110 % of control; T/C [3]: 89 % of control; T/C (dose: 108.0 mg/kg/injection, schedule: Q01DX015 (sc), vehicle: carboxymethylcellulose (CMC)): 97 % of control; T/C [4]: 87 % of control

How did the T/C (dose: 6.25 mg/kg/injection, schedule: Q01DX028 (sc), vehicle: carboxymethylcellulose (CMC)) turn out when `CS(=O)(=O)OCCC(=O)NCNC(=O)CCOS(C)(=O)=O` was run?
Its T/C is 184 % of control.

And the T/C (dose: 12.5 mg/kg/injection, schedule: Q01DX012 (sc), vehicle: carboxymethylcellulose (CMC))?
The T/C was 105 % of control.

And the T/C (dose: 12.5 mg/kg/injection, schedule: Q01DX028 (sc), vehicle: carboxymethylcellulose (CMC))?
Its T/C is 223 % of control and 276 % of control.

What about the T/C (dose: 25.0 mg/kg/injection, schedule: Q01DX012 (sc), vehicle: carboxymethylcellulose (CMC)) of the same molecule?
Its T/C is 328 % of control.

What about the T/C (dose: 25.0 mg/kg/injection, schedule: Q01DX028 (sc), vehicle: carboxymethylcellulose (CMC)) of the same molecule?
The T/C was 200 % of control and 230 % of control.

And the T/C (dose: 50.0 mg/kg/injection, schedule: Q01DX012 (sc), vehicle: carboxymethylcellulose (CMC))?
Its T/C is 110 % of control.

And the T/C (dose: 50.0 mg/kg/injection, schedule: Q01DX028 (sc), vehicle: carboxymethylcellulose (CMC))?
The T/C was 107 % of control and 121 % of control.

What about the T/C (dose: 75.0 mg/kg/injection, schedule: Q01DX028 (sc), vehicle: carboxymethylcellulose (CMC)) of the same molecule?
The T/C was 87 % of control.

Which T/C (dose: 125.0 mg/kg/injection, schedule: Q01DX028 (sc), vehicle: carboxymethylcellulose (CMC)) does the source give for `OC(CBr)C(O)C(O)C(O)CBr` (stereo not given) here?
The T/C was 94 % of control and 102 % of control and 100 % of control.

And the T/C (dose: 500.0 mg/kg/injection, schedule: Q01DX028 (sc), vehicle: carboxymethylcellulose (CMC))?
Its T/C is 89 % of control and 115 % of control.

Which T/C (dose: 1.25 mg/kg/injection, schedule: Q01DX028 (sc), vehicle: carboxymethylcellulose (CMC)) does the source give for `CS(=O)(=O)OCCCCOS(C)(=O)=O` here?
Its T/C is 92 % of control.

What about the T/C (dose: 2.5 mg/kg/injection, schedule: Q01DX028 (sc), vehicle: carboxymethylcellulose (CMC)) of the same molecule?
Its T/C is 102 % of control.

And the T/C (dose: 5.0 mg/kg/injection, schedule: Q01DX028 (sc), vehicle: carboxymethylcellulose (CMC))?
The T/C was 102 % of control.

And the T/C (dose: 10.0 mg/kg/injection, schedule: Q01DX028 (sc), vehicle: carboxymethylcellulose (CMC))?
Its T/C is 123 % of control.

Which results are given for `CCN(CC)CCNc1ccc(C)c2sc3ccccc3c(=O)c12` (tested in a mixture with another compound)?
T/C (dose: 48.0 mg/kg/injection, schedule: Q01DX028 (sc), vehicle: saline): 221 % of control; T/C (dose: 69.0 mg/kg/injection, schedule: Q01DX028 (sc), vehicle: saline): 231 % of control; T/C (dose: 98.0 mg/kg/injection, schedule: Q01DX028 (sc), vehicle: saline): 165 % of control; T/C (dose: 140.0 mg/kg/injection, schedule: Q01DX028 (sc), vehicle: saline): 173 % of control

How did the T/C (dose: 108.0 mg/kg/injection, schedule: Q01DX028 (sc), vehicle: saline) turn out when `O=c1[nH]c(=O)n(C2CC(O)C(CO)O2)cc1F` (stereo not given) was run?
Its T/C is 102 % of control and 109 % of control.

And the T/C (dose: 180.0 mg/kg/injection, schedule: Q01DX028 (sc), vehicle: saline)?
Its T/C is 97 % of control.

And the T/C (dose: 300.0 mg/kg/injection, schedule: Q01DX028 (sc), vehicle: saline)?
The T/C was 91 % of control.

And the T/C (dose: 500.0 mg/kg/injection, schedule: Q01DX028 (sc), vehicle: saline)?
Its T/C is 86 % of control.

Which T/C (dose: 266.0 mg/kg/injection, schedule: Q01DX028 (sc), vehicle: carboxymethylcellulose (CMC)) does the source give for `O=c1ccc2ccc(O)cc2o1` here?
Its T/C is 102 % of control.

What about the T/C (dose: 400.0 mg/kg/injection, schedule: Q01DX028 (sc), vehicle: carboxymethylcellulose (CMC)) of the same molecule?
The T/C was 97 % of control.

What about the T/C (dose: 600.0 mg/kg/injection, schedule: Q01DX028 (sc), vehicle: carboxymethylcellulose (CMC)) of the same molecule?
The T/C was 97 % of control.

With `CC[C@H]1CN2CCc3cc(OC)c(OC)cc3[C@@H]2C[C@@H]1C[C@H]1NCCc2cc(OC)c(OC)cc21` as the molecule, how does the T/C (dose: 1.0 mg/kg/injection, schedule: Q01DX028 (sc), vehicle: saline) read?
The T/C was 106 % of control.

What about the T/C (dose: 2.0 mg/kg/injection, schedule: Q01DX028 (sc), vehicle: saline) of the same molecule?
The T/C was 106 % of control.

What about the T/C (dose: 4.0 mg/kg/injection, schedule: Q01DX028 (sc), vehicle: saline) of the same molecule?
The T/C was 94 % of control.
